PMC10424176, “Chamelogk: A Chromatographic Chameleonicity Quantifier to Design Orally Bioavailable Beyond-Rule-of-5 Drugs” (Journal of Medicinal Chemistry, 2023)

Assays:
[1] = Chamelogk, chromatographic chameleonicity descriptor (PLRP-S RP-HPLC); assay type: physicochemical; conditions: Exp. minus Ext. log k' PLRP-S at 100% MeCN, linear fit at 50, 60, 70% MeCN, 20 mM ammonium acetate pH 7.0, 30 °C
[2] = log kW^IAM and Δ log kW^IAM (IAM chromatography); assay type: physicochemical; conditions: for log kW^IAM: IAM column, extrapolated to 100% buffer from 10 to 50% MeCN, pH 7.0; for Δ log kW^IAM: polarity, from log kW^IAM and BRlogD (eq 4, 5)
Protocol: The mobile phases for every descriptor consisted of isocratic solutions of 20 mM ammonium acetate at pH 7.0 and acetonitrile at various percentages (see the specific descriptor). Small amounts of the 55 compounds were dissolved in buffer/acetonitrile mixtures (v/v) at concentrations ranging from 50 to 100 μg/mL. Subsequently, 10 μL of each solution (injection volume) was injected at an isocratic flow rate of 1 mL/min and analyzed at 30 °C (oven temperature). Chromatographic measurements were then analyzed in duplicate based on the specific chromatographic conditions of each descriptor. […] The retention times of the samples were recorded, and the capacity factor was calculated for each mobile phase condition adapting eq 2, where t0 is the retention time of citric acid.

[3] = cited from earlier work
physchem = assay type: physicochemical; conditions: pH 7
Protocol: The mobile phases for every descriptor consisted of isocratic solutions of 20 mM ammonium acetate at pH 7.0 and acetonitrile at various percentages (see the specific descriptor). Small amounts of the 55 compounds were dissolved in buffer/acetonitrile mixtures (v/v) at concentrations ranging from 50 to 100 μg/mL. Subsequently, 10 μL of each solution (injection volume) was injected at an isocratic flow rate of 1 mL/min and analyzed at 30 °C (oven temperature). Chromatographic measurements were then analyzed in duplicate based on the specific chromatographic conditions of each descriptor.
BRlogD[39] required the injection of 55 samples into the X-Bridge column at 60% MeCN (predominant mobile phase constituent). The retention times and dead time (t0, baseline interference) were recorded, and the capacity factor log k’60 was calculated adapting eq 2. Lastly, BRlogD value was calculated from eq 3 [drawing 3] 3

SMILES	Chamelogk [1]	other results
Brc1cnc2ccccc2c1 [3-bromoquinoline]	0.13	
O=C1CCC(N2C(=O)c3cccc(F)c3C2=O)C(=O)N1 (centres unmarked) [4-F-thalidomide]	0.23	
O=C1CCC(N2C(=O)c3cccc(O)c3C2=O)C(=O)N1 (centres unmarked) [4-hydroxy thalidomide]	–0.16	
CCCN1C(=O)c2ccc(Cl)cc2Nc2ncccc21 [BI-0115]	0.19	
COc1cc(C(=O)NCCOCCOCCOCC(=O)N[C@H](C(=O)N2C[C@H](O)C[C@H]2C(=O)NCc2ccc(-c3scnc3C)cc2)C(C)(C)C)ccc1Nc1ncc(C(F)(F)F)c(Oc2cccc3c2C(=O)CC3)n1 [BI-0319]	0.99	
CCN1C(=O)c2cc(C)ccc2Nc2ncccc21 [BI-1580]	0.1	
COc1cc(C(=O)NCCOCCOCCOCCC(=O)Nc2cccc3c2C(=O)N(C2CCC(=O)NC2=O)C3=O)ccc1Nc1ncc(C(F)(F)F)c(Oc2cccc3c2C(=O)CC3)n1 (centres unmarked) [BI-3663]	0.5	
COc1cc(C(=O)NCCOCCOCCOCC(=O)N[C@H](C(=O)N2C[C@@H](O)C[C@H]2C(=O)NCc2ccc(-c3scnc3C)cc2)C(C)(C)C)ccc1Nc1ncc(C(F)(F)F)c(Oc2cccc3c2C(=O)CC3)n1 [BI-4206]	0.7	
CC(=O)N[C@H](C(=O)N1C[C@H](O)C[C@H]1C(=O)NCc1ccc(-c2scnc2C)cc1)C(C)(C)SCCCCCCNC(=O)C[C@@H]1N=C(c2ccc(Cl)cc2)c2c(sc(C)c2C)-n2c(C)nnc21 [BRD4 degrader AT1]	1.26	
Cc1sc2c(c1C)C(c1ccc(Cl)cc1)=NC(CC(N)=O)c1nnc(C)n1-2 (centres unmarked) [CPI203]	0.54	
Cc1ncsc1-c1ccc(CNC(=O)[C@@H]2C[C@@H](O)CN2C(=O)[C@@H](NC(=O)CCCCOCCCCCOCCCCCCNc2cccc3c2C(=O)N(C2CCC(=O)NC2=O)C3=O)C(C)(C)C)cc1 (some centres unmarked) [CRBN-6-5-5-VHL]	1.05	
CCn1nc(C2CC2)cc1Nc1nc(C(=O)NC)nc2[nH]c3cc(-c4c(C)noc4C)c(OC)cc3c12 [HJB97]	0.15	
COC(=O)C[C@@H]1N=C(c2ccc(Cl)cc2)c2c(sc(C)c2C)-n2c(C)nnc21 [MS-417]	0.29	
CC(=O)N1c2ccc(-c3ccc(C(=O)NCCOCCOCCOCC(=O)N[C@H](C(=O)N4C[C@H](O)C[C@H]4C(=O)NCc4ccc(-c5scnc5C)cc4)C(C)(C)C)cc3)cc2[C@H](Nc2ccc(Cl)cc2)C[C@@H]1C [MZP-54]	1.18	
Cc1ncsc1-c1ccc(CNC(=O)[C@@H]2C[C@@H](O)CN2C(=O)[C@@H](NC(=O)C2(C#N)CC2)C(C)(C)C)c(O)c1 [OH-VH298 (S,R,S)]	0.48	
Cc1sc2c(c1C)C(c1ccc(Cl)cc1)=N[C@@H](CC(=O)Nc1ccc(O)cc1)c1nnc(C)n1-2 [OTX-015]	0.64	
Nc1ccc(OCCOCCOCCOCCNc2cccc3c2C(=O)N(C2CCC(=O)NC2=O)C3=O)cc1 (centres unmarked) [PEG4-PH-NH2-pomalidomide]	0.12	
Cc1sc2c(c1C)C(c1ccc(Cl)cc1)=N[C@@H](CC(=O)NCCCCCC(=O)NCc1cccc3c1C(=O)N(C1CCC(=O)NC1=O)C3=O)c1nnc(C)n1-2 (some centres unmarked) [PROTAC BET degrader-10]	0.83	
Cc1ncsc1-c1ccc(CNC(=O)[C@@H]2C[C@@H](O)CN2C(=O)[C@@H](NC(=O)CCOCCOc2ccc(Nc3ncc(C(F)(F)F)c(NCc4cccc(N(C)S(C)(=O)=O)c4)n3)cc2)C(C)(C)C)cc1 [PROTAC FAK degrader-1]	0.79	
O=C(CCCCC(=O)NCCN1C(=O)c2cccc3c(Sc4ccc(Br)cc4)ccc(c23)C1=O)NCCCCCCNc1cccc2c1C(=O)N(C1CCC(=O)NC1=O)C2=O (centres unmarked) [PROTAC Mcl degrader-1]	0.93	
Cc1ncsc1-c1ccc(CNC(=O)[C@@H]2C[C@@H](O)CN2C(=O)[C@@H](NC(=O)COCCOCCNC(=O)COc2cnc3c(C4CCN(C(=O)c5ccc(OC(F)(F)F)cc5)CC4)ncnc3c2)C(C)(C)C)cc1 [PROTAC-1]	1.07	

SMILES	Chamelogk [1]	other results
COC(=O)C[C@@H]1N=C(c2ccc(Cl)cc2)c2c(sc(C(=O)NCCCCCNc3cccc4c3C(=O)N(C3CCC(=O)NC3=O)C4=O)c2C)-n2c(C)nnc21 (some centres unmarked) [ZXH-3-26]	0.65	
CC(C)=O [acetone]	–0.13	
c1ccc(-c2ccc(C(c3ccccc3)n3ccnc3)cc2)cc1 (centres unmarked) [bifonazole]	0.45	
Cc1ncsc1-c1ccc(CNC(=O)[C@@H]2C[C@H](O)CN2C(=O)[C@@H](NC(=O)C2(C#N)CC2)C(C)(C)C)c(O)c1 [cis-OH-VH298 (S,S,S)]	0.45	
CC(=O)N[C@H](C(=O)N1C[C@@H](O)C[C@H]1C(=O)NCc1ccc(-c2scnc2C)cc1O)C(C)(C)C [cis-phenol-VH032 (S,S,S)]	0.65	
Clc1ccccc1C(c1ccccc1)(c1ccccc1)n1ccnc1 [clotrimazole]	0.71	
Cc1sc2c(c1C)C(c1ccc(Cl)cc1)=N[C@@H](CC(=O)NCCCCNC(=O)COc1cccc3c1C(=O)N(C1CCC(=O)NC1=O)C3=O)c1nnc(C)n1-2 (some centres unmarked) [dBET1]	0.8	
Cc1sc2c(c1C)C(c1ccc(Cl)cc1)=N[C@@H](CC(=O)NCCCCCCCCNC(=O)COc1cccc3c1C(=O)N(C1CCC(=O)NC1=O)C3=O)c1nnc(C)n1-2 (some centres unmarked) [dBET6]	0.86	
CN1C(=O)CN=C(c2ccccc2)c2cc(Cl)ccc21 [diazepam]	0.30	Chamelogk ([1]; listed as Diazepam): 0.3
CC/C(=C(/CC)c1ccc(O)cc1)c1ccc(O)cc1 [diethylstilbestrol]	0.44	
CO[C@H]1C[C@@H]2CC[C@@H](C)[C@@](O)(O2)C(=O)C(=O)N2CCCC[C@H]2C(=O)O[C@H]([C@H](C)C[C@@H]2CC[C@@H](OCCO)[C@H](OC)C2)CC(=O)[C@H](C)/C=C(\C)[C@@H](O)[C@@H](OC)C(=O)[C@H](C)C[C@H](C)/C=C/C=C/C=C/1C [everolimus]	0.45	log kW^IAM [2]: 4.15; Δ log kW^IAM [2]: 0.71; ChameLogD [3]: 1.7; chromatographic logD (physchem): 4.86
COc1cc2ncnc(Nc3ccc(F)c(Cl)c3)c2cc1OCCCCCOCCOCCC(=O)N[C@H](C(=O)N1C[C@H](O)C[C@H]1C(=O)NCc1ccc(-c2scnc2C)cc1)C(C)(C)C [gefitinib-based PROTAC 3]	1.36	
C[C@]12CCC(=O)C=C1CC[C@@H]1[C@@H]2[C@@H](O)C[C@@]2(C)[C@H]1CC[C@]2(O)C(=O)CO [hydrocortisone]	0.10	Chamelogk ([1]; listed as Hydrocortisone): 0.1
c1ccc2ccccc2c1 [naphthalene]	0.02	
CC(=O)O[C@H]1C(=O)[C@@]2(C)[C@H]([C@H](OC(=O)c3ccccc3)[C@]3(O)C[C@H](OC(=O)[C@H](O)[C@@H](NC(=O)c4ccccc4)c4ccccc4)C(C)=C1C3(C)C)[C@]1(OC(C)=O)CO[C@@H]1C[C@@H]2O [paclitaxel]	0.15	
CC(=O)N[C@H](C(=O)N1C[C@H](O)C[C@H]1C(=O)NCc1ccc(-c2scnc2C)cc1O)C(C)(C)C [phenol-VH032 (S,R,S)]	0.37	
Oc1ccccc1 [phenol]	0.16	
CC[C@@H]1/C=C(\C)C[C@H](C)C[C@H](OC)[C@H]2O[C@@](O)(C(=O)C(=O)N3CCCC[C@H]3C(=O)O[C@H](/C(C)=C/[C@@H]3CC[C@H](Cl)[C@H](OC)C3)[C@H](C)[C@@H](O)CC1=O)[C@H](C)C[C@@H]2OC [pimecrolimus]	0.43	log kW^IAM [2]: 3.35; Δ log kW^IAM [2]: -1.62; chromatographic logD (physchem): 6.52
Nc1cccc2c1C(=O)N(C1CCC(=O)NC1=O)C2=O (centres unmarked) [pomalidomide]	0.00	Chamelogk ([1]; listed as Pomalidomide): 0
CO[C@H]1C[C@@H]2CC[C@@H](C)[C@@](O)(O2)C(=O)C(=O)N2CCCC[C@H]2C(=O)O[C@H]([C@H](C)C[C@@H]2CC[C@@H](OC(=O)C(C)(CO)CO)[C@H](OC)C2)CC(=O)[C@H](C)/C=C(\C)[C@@H](O)[C@@H](OC)C(=O)[C@H](C)C[C@H](C)/C=C/C=C/C=C/1C [temsirolimus]	0.23	ChameLogD [3]: 2
C=C/C=C/C[C@@H](C)[C@@H](O)[C@H]1C(=O)N[C@@H](CC)C(=O)N(C)CC(=O)N(C)[C@@H](CC(C)C)C(=O)N[C@@H](C(C)C)C(=O)N(C)[C@@H](CC(C)C)C(=O)N[C@@H](C)C(=O)N[C@H](C)C(=O)N(C)[C@@H](CC(C)C)C(=O)N(C)[C@@H](CC(C)C)C(=O)N(C)[C@@H](C(C)C)C(=O)N1C [voclosporin]	1.15	
